Assay results reported in paper PMC3986359, “New Cholinesterase Inhibitory Constituents from Lonicera quinquelocularis” (PLoS ONE, 2014).
Read-outs that look alike come from different tables or passages of the source.

Experiments:
[1] = biological target: T1, Acetylcholinesterase (EC 3.1.1.7) (Homo sapiens, UniProt P22303); assay: biochemical; assay type: biochemical; settings: for IC50: read-out: AChE ± SEM (IC50); for AChE inhibition profile (in words): qualitative statement
T1 construct: purchased Sigma, Pakistan
T1 sequence (P22303 32-614): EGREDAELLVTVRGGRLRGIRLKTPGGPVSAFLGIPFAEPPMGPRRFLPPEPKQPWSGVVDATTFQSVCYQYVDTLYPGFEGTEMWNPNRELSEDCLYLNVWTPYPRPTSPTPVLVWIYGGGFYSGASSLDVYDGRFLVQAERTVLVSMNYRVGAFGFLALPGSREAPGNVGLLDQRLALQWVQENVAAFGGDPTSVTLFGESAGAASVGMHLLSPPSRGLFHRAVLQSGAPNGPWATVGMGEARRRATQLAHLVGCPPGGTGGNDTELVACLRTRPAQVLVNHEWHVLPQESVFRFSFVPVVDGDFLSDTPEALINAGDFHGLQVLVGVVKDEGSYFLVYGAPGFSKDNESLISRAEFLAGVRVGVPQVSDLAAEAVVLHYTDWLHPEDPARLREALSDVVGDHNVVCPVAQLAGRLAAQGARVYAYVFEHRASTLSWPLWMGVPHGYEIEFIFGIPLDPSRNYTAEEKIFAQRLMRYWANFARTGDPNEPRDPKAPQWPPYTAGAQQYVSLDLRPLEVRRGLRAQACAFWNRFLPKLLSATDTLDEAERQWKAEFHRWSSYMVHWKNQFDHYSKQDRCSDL
Experimental: (§1) All other chemicals were of analytical grade and were used as such without further purification. Acetylcholinesterase (AChE) and butyrylcholinesterase (BChE) inhibiting activities were measured according to a modified spectrophotometric method used by Ellman et al.. Protocol and assay conditions were the same as described by Rocha et al..
(§2) The Acetylthiocholine iodide and butyrylthiocholine chloride were used as substrates for investigation of acetylcholinesterase and butyrylcholinesterase assays, respectively. The 5,5′-Dithiobis[2-nitrobenzoic-acid] (DTNB) was used for the measurement of cholinesterase activity. The 0.2 mM DTNB in 62 mM sodium phosphate buffer (pH 8.0, 880 µL), test compound solution (40 µL) and acetylcholinesterase or butyrylcholinesterase solution (40 µL) were mixed and incubated for 15 minutes (25°C). The reaction was then initiated by the addition of acetylthiocholine or butyrylthiocholine (40 µL), respectively. […] All the reactions were performed in triplicate using a BMS spectrophotometer (USA). […] The final concentration of DMSO in the reaction mixture was maintained at 6%.

[2] = biological target: T2, butyrylcholinesterase (horse-serum E.C 3.1.1.8) (Equus caballus, UniProt P81908); assay: biochemical; assay type: biochemical; settings: for BChE inhibition profile (in words): qualitative statement
T2 construct: butyrylcholinesterase (horse-serum E.C 3.1.1.8); purchased Sigma, Pakistan; host or cells: horse serum
T2 sequence (P81908 whole entry): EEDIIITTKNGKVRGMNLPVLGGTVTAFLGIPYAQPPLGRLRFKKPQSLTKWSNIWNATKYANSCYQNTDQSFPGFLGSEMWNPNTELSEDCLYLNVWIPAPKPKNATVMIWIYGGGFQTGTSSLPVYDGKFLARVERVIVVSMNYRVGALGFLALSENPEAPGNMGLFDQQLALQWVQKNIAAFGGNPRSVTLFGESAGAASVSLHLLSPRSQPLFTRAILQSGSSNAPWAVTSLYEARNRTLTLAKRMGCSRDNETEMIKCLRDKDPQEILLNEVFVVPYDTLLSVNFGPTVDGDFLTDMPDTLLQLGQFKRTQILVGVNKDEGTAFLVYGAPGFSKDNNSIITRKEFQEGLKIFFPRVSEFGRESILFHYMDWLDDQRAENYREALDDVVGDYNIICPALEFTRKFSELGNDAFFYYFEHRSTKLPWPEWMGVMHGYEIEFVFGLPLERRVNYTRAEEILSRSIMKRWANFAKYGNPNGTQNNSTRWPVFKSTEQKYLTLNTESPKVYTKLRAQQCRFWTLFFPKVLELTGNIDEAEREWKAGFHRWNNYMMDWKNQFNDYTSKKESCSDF
Experimental: as §1, §2

[3] = acetylthiocholine iodide substrate, DTNB, pH 8.0, 25°C, 412 nm, value ± SEM
[4] = butyrylthiocholine chloride substrate, DTNB, pH 8.0, 25°C, 412 nm, value ± SEM, read-out: BChE ± SEM (IC50)

| Compound | IC50 [1, 3] [µM] | IC50 [2, 4] [µM] | AChE inhibition profile (in words) [1] | BChE inhibition profile (in words) [2] | IC50 [2] [µM] | AChE ± SEM (IC50) [1, 3] | BChE ± SEM (IC50) ([2]; butyrylthiocholine chloride substrate, DTNB, pH 8.0, 25°C, 412 nm, value ± SEM) |
| --- | --- | --- | --- | --- | --- | --- | --- |
| CC(C)=CCc1cc(C(=O)OCC(C)(C)C)cc(CC=C(C)C)c1O [Compound 5, Neopentyl-4-hydroxy-3,5-bis [3-methyl-2-butenyl] benzoate] | 3.43 ± 0.02 | 9.84 ± 0.037 |  |  |  |  |  |
| CCC(CCC(C)CCOC(C)=O)COC(=O)c1ccccc1C(=O)OCC(CC)CCC(C)CCOC(C)=O (stereo not shown) [Compound 3, Bis (7-acetoxy-2-ethyl-5-methylheptyl) phthalate] | 1.65 ± 0.03 | 5.98 ± 0.079 |  |  |  |  |  |
| CCOc1c(CC=C(C)C)cc(C(=O)OCC(C)(C)C)cc1CC=C(C)C [Compound 4, Neopentyl-4-ethoxy-3,5-bis [3-methyl-2-butenyl] benzoate] | 5.27 ± 0.04 | 14.76 ± 0.087 | weak inhibition profile | weak inhibition profile |  |  |  |
| CCCCCCCCOC(=O)c1ccccc1C(=O)OCCCCCCCC [Compound 2, dioctyl phthalate] | 8.74 ± 0.07 |  | weak inhibition profile | weak inhibition profile | 20.12 ± 0.079 |  |  |
| CCCCC(CC)COC(=O)c1ccccc1C(=O)OCC(CC)CCCC (stereo not shown) [Compound 1, bis (2-ethylhexyl phthalate] |  |  | inactive | inactive |  | Nil | Nil |
